{
  "source": "patent US7943621B2",
  "about": "“Salts of piperazine compounds as D3/D2 antagonists” (Richter Gedeon Nyrt., priority 2008, dated 2011)",
  "key": {"[1]": {"experiment": "stability when stored in the solid state (long term and accelerated)", "type": "physicochemical"}, "[2]": {"experiment": "thermal stability by thermogravimetric (TG) and DSC analysis", "type": "physicochemical", "conditions": "solvent-free anhydrous form, 10° C./min, N2", "method": "The characterization of trans 4-{2-[4-(2,3-dichlorophenyl)-piperazine-1-yl]-ethyl}-N,N-dimethylcarbamoyl-cyclohexylamine monohydrochloride was carried out by thermogravimetric (TG), differential scanning […] (DSC), infrared spectroscopic (FT-IR), Raman spectroscopic (FT-Raman) and powder X-ray diffraction (PXRD) solid phase analytical methods."}},
  "note": "Structures can show the parent of a compound that is named as a salt.",
  "data": [
    {"smiles": "CN(C)C(=O)NC1CCC(CCN2CCN(c3cccc(Cl)c3Cl)CC2)CC1", "note": "(stereo not drawn) [monohydrochloride, Trans 4-{2-[4-(2,3-dichlorophenyl)-piperazine-1-yl]-ethyl}-N,N-dimethylcarbamoyl-cyclohexylamine monohydrochloride]", "values": [
      {"measurement": "long term stability", "setting": "[1]; 25±2° C./60±5% RH", "result": 48, "unit": "months"},
      {"measurement": "accelerated stability", "setting": "[1]; 40±2° C./75±5% RH", "result": 6, "unit": "months"},
      {"measurement": "satisfactory thermal stability up to", "setting": "[2]", "result": "about 200 °C"}
    ]}
  ]
}
